Test results: patent US6683184B2, “Piperazine derivatives and process for the preparation thereof” (Samjin Pharmaceutical Co., Ltd., priority 1999, dated 2004)
In brackets after ≈: the same amount, converted by molar mass.

Tests used:
Type in all cases: cell-based
[1] = system: P388 (mouse lymphoid neoplasma cell); assay: In vitro antitumor effects against animal leukemia cells, dye exclusion assay; settings: 48 hours, trypan blue dye exclusion, read-out: P388 (IC50, concentration showing 50% cell growth inhibition compared with the control)
Experimental: In vitro antitumor effects against animal leukemia cells.
Tumor cell line: P388 (mouse lymphoid neoplasma cell)
B. Method: Dye Exclusion Assay.
1) Concentrations of P388 cells being cultured in RPMI 1640 media containing 10% FBS were regulated to 1×10^6 cells/ml.
2) Sample drugs of respective concentrations diluted in the ratio of log doses were added into each cell culture and cultured at 37° C., for 48 hours, in […] incubator, and then viable cell numbers were measured by dye exclusion test using trypan blue.

HCT-15 (human colon) = assay: In vitro antitumor effect against human tumor cell lines, SRB assay, HCT-15; settings: Homo sapiens, HCT 15 cells, 48 hours, read-out: ED50 HCT 15
Experimental: (§1) In vitro antitumor effect against human tumor cell lines.
(§2) a. Human solid tumor cell lines, A549(non-small lung cell), SKMEL-2(melanoma), HCT-15(colon), SKOV-3(ovarian), XF-498(CNS) were cultured at 37° C. in 5% CO2 incubators using RPMI 1640 media containing 10% FBS, while they were transfer-cultured successively once or twice per week. Cell cultures were dissolved in a solution of 0.25% trypsin and 3 mM CDTA PBS(−) and then cells were separated from media which the cells were sticked on.
(§3) b. 5×10^3˜2×10^4 cells were added into each well of 96-well plate and cultured in 5% CO2 incubator, at 37° C., for 24 hours.
(§4) c. Each sample drug was dissolved in a little DMSO and diluted with the used medium to a prescribed concentration for experiments, wherein the final concentration of DMSO was controlled below 0.5%.
(§5) d. Medium of each well cultured for 24 hours as above b. was removed by aspiration. Each 200 μl of drug samples prepared in c. was added into each well and the wells were cultured for 48 hours. Tz(time zero) plates were collected at the point of time drugs were added.
(§6) e. According to the SRB assay method, cell fixing with TCA, staining with 0.4% SRB solution, washing with 1% acetic acid and elution of dye with 10 mM Tris solution were carried out on Tz plates and culture-ended plates, whereby OD values were measured at 520 nm.
(§7) a. Time zero(Tz) value was determined with measuring the SRB protein amounts of the Tz plates collected at the point of time drugs were added.
(§8) b. Control value(C) was determined with the OD values of wells untreated with a drug.
(§9) c. Drug-treated test value(T) was determined with the OD values of drug-treated wells.
(§10) d. Effects of drugs were estimated with growth stimulation, net growth inhibition, net killing etc., being calculated from Tz, C and T.
(§11) e. If T≧Tz, cellular response function was calculated by 100×(T−Tz)/(C−Tz), and if T<Tz, by 100×(T−Tz)/Tz.

SKMEL-2 (human melanoma) = assay: In vitro antitumor effect against human tumor cell lines, SRB assay, SKMEL-2; settings: Homo sapiens, SK-MEL-2 cells, 48 hours, read-out: ED50 SK-MEL-2
Experimental: as §1, §2, §3, §4, §5, §6, §7, §8, §9, §10, §11

XF 498 (human CNS) = assay: In vitro antitumor effect against human tumor cell lines, SRB assay, XF 498; settings: Homo sapiens, XF498, XF-498 cells, 48 hours, read-out: ED50 XF-498
Experimental: as §1, §2, §3, §4, §5, §6, §7, §8, §9, §10, §11

SKOV-3 (human ovarian) = assay: In vitro antitumor effect against human tumor cell lines, SRB assay, SKOV-3; settings: Homo sapiens, SK-OV-3 cells, 48 hours, read-out: ED50 SK-OV-3
Experimental: as §1, §2, §3, §4, §5, §6, §7, §8, §9, §10, §11

[2] = system: A549 (human non-small lung cell); assay: In vitro antitumor effect against human tumor cell lines, SRB assay, A549; settings: Homo sapiens, A549 cells, 48 hours, read-out: ED50 A 549
Experimental: as §1, §2, §3, §4, §5, §6, §7, §8, §9, §10, §11

Structure (SMILES)	IC50 [1] [µg/mL]	IC50 (HCT-15 (human colon)) [µg/mL]	IC50 (SKMEL-2 (human melanoma)) [µg/mL]	IC50 (XF 498 (human CNS)) [µg/mL]	IC50 (SKOV-3 (human ovarian)) [µg/mL]	IC50 [2] [µg/mL]
COc1nc(C)c(C)nc1N(C)C(=O)N1CCN(c2cc(C)cc(C)c2)CC1 [Example 20, 1-[(5,6-Dimethyl-2-methoxypyrazin-3-yl)N-methylaminocarbonyl]-4-(3,5-dimethylphenyl)piperazine]	1.2 (≈ 3.13 µM)	0.295 (≈ 0.769 µM)	0.211 (≈ 0.55 µM)	0.97 (≈ 2.53 µM)	0.904 (≈ 2.36 µM)	0.323 (≈ 0.842 µM)
COc1nc(C)c(C)nc1NC(=O)N1CCN(c2cc([N+](=O)[O-])cc([N+](=O)[O-])c2)CC1 [Example 15, 1-[(5,6-Dimethyl-2-methoxypyrazin-3-yl)aminocarbonyl]-4-(3,5-dinitrophenyl)piperazine]	0.7 (≈ 1.62 µM)	0.071 (≈ 0.165 µM)	0.038 (≈ 0.0881 µM)	0.096 (≈ 0.223 µM)	0.184 (≈ 0.427 µM)	0.079 (≈ 0.183 µM)
COc1nc(C)c(C)nc1NC(=O)N1CCN(c2cc(F)cc(F)c2)CC1 [Example 12, 1-[(5,6-Dimethyl-2-methoxypyrazin-3-yl)aminocarbonyl]-4-(3,5-difluorophenyl)piperazine]	0.1 (≈ 0.265 µM)	0.001 (≈ 0.00265 µM)	0.008 (≈ 0.0212 µM)	0.017 (≈ 0.045 µM)	0.069 (≈ 0.183 µM)	0.008 (≈ 0.0212 µM)
COc1ccccc1N1CCN(C(=O)Nc2nc3ccccc3nc2OC)CC1 [Example 37, 1-[(2-Methoxyquinoxalin-3-yl)aminocarbonyl]-4-(2-methoxyphenyl)-piperazine]	0.3 (≈ 0.762 µM)	0.009 (≈ 0.0229 µM)	0.02 (≈ 0.0508 µM)	0.003 (≈ 0.00762 µM)	0.02 (≈ 0.0508 µM)	0.01 (≈ 0.0254 µM)
CCOc1nc2ccccc2nc1NC(=O)N1CCN(c2cc(OC)cc(OC)c2)CC1 [Example 72, 1-[(2-Ethoxyquinoxalin-3-yl)aminocarbonyl]-4-(3,5-dimethoxyphenyl)piperazine]	0.1 (≈ 0.229 µM)	0.0001 (≈ 0.000229 µM)	< 0.0001	0.0001 (≈ 0.000229 µM)	0.0007 (≈ 0.0016 µM)	0.0001 (≈ 0.000229 µM)
COc1cc(OC)cc(N2CCN(C(=O)Nc3nc(C)c(C)nc3OC)CC2)c1 [Example 3, 1-[(5,6-Dimethyl-2-methoxypyrazin-3-yl)aminocarbonyl]-4-(3,5-dimethoxyphenyl)piperazine]	0.01 (≈ 0.0249 µM)	0.002 (≈ 0.00498 µM)	0.0015 (≈ 0.00374 µM)	0.0022 (≈ 0.00548 µM)	0.0064 (≈ 0.0159 µM)	0.0016 (≈ 0.00399 µM)
COc1cc(OC)cc(N2CCN(C(=S)Nc3nc4ccccc4nc3OC)CC2)c1 [Example 64, 1-[(2-Methoxyquinoxalin-3-yl)aminothiocarbonyl]-4-(3,5-dimethoxyphenyl)piperazine]	0.34 (≈ 0.774 µM)	0.032 (≈ 0.0728 µM)	0.011 (≈ 0.025 µM)	0.014 (≈ 0.0319 µM)	0.057 (≈ 0.13 µM)	0.019 (≈ 0.0432 µM)
CCOc1nc2ccccc2nc1NC(=O)N1CCN(c2cc(C)cc(C)c2)CC1 [Example 74, 1-[(2-Ethoxyquinoxalin-3-yl)aminocarbonyl]-4-(3,5-dimethylphenyl)piperazine]	0.68 (≈ 1.68 µM)	0.028 (≈ 0.0691 µM)	0.003 (≈ 0.0074 µM)	0.024 (≈ 0.0592 µM)	0.038 (≈ 0.0937 µM)	0.002 (≈ 0.00493 µM)
COc1nc2ccccc2nc1NC(=O)N1CCN(c2cc([N+](=O)[O-])cc([N+](=O)[O-])c2)CC1 [Example 48, 1-[(2-Methoxyquinoxalin-3-yl)aminocarbonyl]-4-(3,5-dinitrophenyl)piperazine]	0.39 (≈ 0.86 µM)	0.002 (≈ 0.00441 µM)	0.0003 (≈ 0.000662 µM)	0.004 (≈ 0.00882 µM)	0.007 (≈ 0.0154 µM)	0.001 (≈ 0.00221 µM)
COc1nc2ccccc2nc1NC(=S)N1CCN(c2cc(C)cc(C)c2)CC1 [Example 66, 1-[(2-Methoxyquinoxalin-3-yl)aminothiocarbonyl]-4-(3,5-di-methylphenyl)piperazine]	0.2 (≈ 0.491 µM)	0.003 (≈ 0.00736 µM)	0.002 (≈ 0.00491 µM)	0.008 (≈ 0.0196 µM)	0.008 (≈ 0.0196 µM)	0.005 (≈ 0.0123 µM)
COc1cc(OC)cc(N2CCN(C(=S)Nc3nc(C)c(C)nc3OC)CC2)c1 [Example 28, 1-[(5,6-Dimethyl-2-methoxypyrazin-3-yl)aminothiocarbonyl]-4-(3,5-dimethoxyphenyl)piperazine]	0.04 (≈ 0.0958 µM)	0.0001 (≈ 0.00024 µM)	< 0.0001	0.0001 (≈ 0.00024 µM)	0.0006 (≈ 0.00144 µM)	0.0001 (≈ 0.00024 µM)
